In US8936916B2, “Polypeptides for microbial detection” (3M Innovative Properties Company, priority 2008, dated 2015):
Ends that are not written are not given here. * marks the point of attachment. Myristoyl = CCCCCCCCCCCCCC(=O)*

Experiment: Permeabilization of DPPC liposomes containing glucose oxidase by phosphorylated dermatoxin (absorbance at 538 nm)
Format: biochemical
Method: DPPC liposomes containing 5 mg/mL glucose oxidase were prepared as described in Example 2. Glucose oxidase activity was measured in a coupled enzyme reaction with horseradish peroxidase as described in Example 2. The various solutions were quickly added to each of the wells of a microplate using a multichannel pipette and the reactions were started (at T=0 hours) with the addition to the wells of a solution containing glucose and 4-AAP.
The ability of the phosphorylated dermatoxin to open liposomes in the presence of phosphatase was tested by preparing a developing solution as described in Example 2. One hundred-fifty microliters of the developing solution was placed in each well of a 96-well microplate. To each column in the plate was added 20 μL of TES buffer containing one of the following concentrations of unpurified dermatoxin: 3.3 mg/mL, 3.3×10^−1 mg/mL, 3.3×10^−2 mg/mL, 3.3×10^−3 mg/mL, 3.3×10^−4 mg/mL, 3.3×10^−5 mg/mL, 3.3×10^−6 mg/mL, or 3.3×10^−7 mg/mL. Negative control wells contained TES buffer with no dermatoxin. Positive control wells buffer contained TES buffer with Triton X-100. Ten-microliter aliquots of the following concentrations of DPPC liposomes (containing 5 mg/mL glucose oxidase) were added to wells in duplicate rows: 0.1 mg lipid/mL, 0.02 mg lipid/mL, 0.004 mg lipid/mL, or plain buffer. To one of the duplicate rows was added 20 μL of 2.5 mg/mL alkaline phosphatase in TES. The other duplicate row received 20 μL of TES buffer. Thus the final dermatoxin concentration in the well varied from […], and the final lipid concentration in the well ranged from 0.005 mg lipid/mL to 2.0×10^−4 mg lipid/mL.
The absorbance was recorded at 538 nm on a SpectraMax M5 plate reader (Molecular Devices, Sunnyvale, Calif.) after two hours incubation at room temperature, and also after overnight incubation (approximately 18 hours). Since the absorbance of several wells was saturated, the overnight samples were diluted 1:10 with 50 mmol TES and the absorbance of the diluted samples was measured.

For “SLGSFLKGVGTTLASVGKVVSDQFGKLLQAGQ (Myristoyl-SLGSFLKGVGTTLASVGKVVSDQFGKLLQAGQ; also: phosphorylated) [phosphorylated dermatoxin, fully phosphorylated dermatoxin, unpurified crude preparation]”, the “Absorbance at 538 nm (cytolytic peptide activity)” value (“Absorbance at 538 nm” below) (2 hrs, lipid conc. 0, dermatoxin mass 3.3 × 10^−5 mg, with phosphatase) was 0.122 absorbance units, the “Absorbance at 538 nm” value (2 hrs, lipid conc. 0, dermatoxin mass 3.3 × 10^−5 mg, without phosphatase) was 0.121 absorbance units and the “Absorbance at 538 nm” value (2 hrs, lipid conc. 0, dermatoxin mass 3.3 × 10^−6 mg, with phosphatase) was 0.120 absorbance units. The “Absorbance at 538 nm” value (2 hrs, lipid conc. 0, dermatoxin mass 3.3 × 10^−6 mg, without phosphatase) was 0.115 absorbance units, the “Absorbance at 538 nm” value (2 hrs, lipid conc. 0, dermatoxin mass 3.3 × 10^−7 mg, with phosphatase) was 0.118 absorbance units and the “Absorbance at 538 nm” value (2 hrs, lipid conc. 0, dermatoxin mass 3.3 × 10^−7 mg, without phosphatase) was 0.116 absorbance units. For the same sequence, the “Absorbance at 538 nm” value (2 hrs, lipid conc. 0, dermatoxin mass 3.3 × 10^−8 mg, with phosphatase) was 0.119 absorbance units, the “Absorbance at 538 nm” value (2 hrs, lipid conc. 0, dermatoxin mass 3.3 × 10^−8 mg, without phosphatase) was 0.114 absorbance units and the “Absorbance at 538 nm” value (2 hrs, lipid conc. 0, dermatoxin mass 3.3 × 10^−9 mg, with phosphatase) was 0.118 absorbance units. For the same sequence, the “Absorbance at 538 nm” value (2 hrs, lipid conc. 0, dermatoxin mass 3.3 × 10^−9 mg, without phosphatase) was 0.113 absorbance units, the “Absorbance at 538 nm” value (2 hrs, lipid conc. 0.004, dermatoxin mass 3.3 × 10^−5 mg, with phosphatase) was 0.204 absorbance units and the “Absorbance at 538 nm” value (2 hrs, lipid conc. 0.004, dermatoxin mass 3.3 × 10^−5 mg, without phosphatase) was 0.200 absorbance units. For the same sequence, the “Absorbance at 538 nm” value (2 hrs, lipid conc. 0.004, dermatoxin mass 3.3 × 10^−6 mg, with phosphatase) was 0.197 absorbance units, the “Absorbance at 538 nm” value (2 hrs, lipid conc. 0.004, dermatoxin mass 3.3 × 10^−6 mg, without phosphatase) was 0.161 absorbance units and the “Absorbance at 538 nm” value (2 hrs, lipid conc. 0.004, dermatoxin mass 3.3 × 10^−7 mg, with phosphatase) was 0.130 absorbance units. The “Absorbance at 538 nm” value (2 hrs, lipid conc. 0.004, dermatoxin mass 3.3 × 10^−7 mg, without phosphatase) was 0.119 absorbance units, the “Absorbance at 538 nm” value (2 hrs, lipid conc. 0.004, dermatoxin mass 3.3 × 10^−8 mg, with phosphatase) was 0.126 absorbance units and the “Absorbance at 538 nm” value (2 hrs, lipid conc. 0.004, dermatoxin mass 3.3 × 10^−8 mg, without phosphatase) was 0.111 absorbance units. The “Absorbance at 538 nm” value (2 hrs, lipid conc. 0.004, dermatoxin mass 3.3 × 10^−9 mg, with phosphatase) was 0.126 absorbance units, the “Absorbance at 538 nm” value (2 hrs, lipid conc. 0.004, dermatoxin mass 3.3 × 10^−9 mg, without phosphatase) was 0.115 absorbance units and the “Absorbance at 538 nm” value (2 hrs, lipid conc. 0.02, dermatoxin mass 3.3 × 10^−5 mg, with phosphatase) was 0.546 absorbance units. The “Absorbance at 538 nm” value (2 hrs, lipid conc. 0.02, dermatoxin mass 3.3 × 10^−5 mg, without phosphatase) was 0.633 absorbance units, the “Absorbance at 538 nm” value (2 hrs, lipid conc. 0.02, dermatoxin mass 3.3 × 10^−6 mg, with phosphatase) was 0.480 absorbance units and the “Absorbance at 538 nm” value (2 hrs, lipid conc. 0.02, dermatoxin mass 3.3 × 10^−6 mg, without phosphatase) was 0.263 absorbance units. For the same sequence, the “Absorbance at 538 nm” value (2 hrs, lipid conc. 0.02, dermatoxin mass 3.3 × 10^−7 mg, with phosphatase) was 0.140 absorbance units, the “Absorbance at 538 nm” value (2 hrs, lipid conc. 0.02, dermatoxin mass 3.3 × 10^−7 mg, without phosphatase) was 0.141 absorbance units and the “Absorbance at 538 nm” value (2 hrs, lipid conc. 0.02, dermatoxin mass 3.3 × 10^−8 mg, with phosphatase) was 0.132 absorbance units. For the same sequence, the “Absorbance at 538 nm” value (2 hrs, lipid conc. 0.02, dermatoxin mass 3.3 × 10^−8 mg, without phosphatase) was 0.111 absorbance units, the “Absorbance at 538 nm” value (2 hrs, lipid conc. 0.02, dermatoxin mass 3.3 × 10^−9 mg, with phosphatase) was 0.124 absorbance units and the “Absorbance at 538 nm” value (2 hrs, lipid conc. 0.02, dermatoxin mass 3.3 × 10^−9 mg, without phosphatase) was 0.114 absorbance units. For the same sequence, the “Absorbance at 538 nm” value (2 hrs, lipid conc. 0.1, dermatoxin mass 3.3 × 10^−5 mg, with phosphatase) was 2.034 absorbance units, the “Absorbance at 538 nm” value (2 hrs, lipid conc. 0.1, dermatoxin mass 3.3 × 10^−5 mg, without phosphatase) was 1.521 absorbance units and the “Absorbance at 538 nm” value (2 hrs, lipid conc. 0.1, dermatoxin mass 3.3 × 10^−6 mg, with phosphatase) was 1.473 absorbance units. The “Absorbance at 538 nm” value (2 hrs, lipid conc. 0.1, dermatoxin mass 3.3 × 10^−6 mg, without phosphatase) was 0.759 absorbance units, the “Absorbance at 538 nm” value (2 hrs, lipid conc. 0.1, dermatoxin mass 3.3 × 10^−7 mg, with phosphatase) was 0.173 absorbance units and the “Absorbance at 538 nm” value (2 hrs, lipid conc. 0.1, dermatoxin mass 3.3 × 10^−7 mg, without phosphatase) was 0.267 absorbance units. For the same sequence, the “Absorbance at 538 nm” value (2 hrs, lipid conc. 0.1, dermatoxin mass 3.3 × 10^−8 mg, with phosphatase) was 0.136 absorbance units, the “Absorbance at 538 nm” value (2 hrs, lipid conc. 0.1, dermatoxin mass 3.3 × 10^−8 mg, without phosphatase) was 0.132 absorbance units and the “Absorbance at 538 nm” value (2 hrs, lipid conc. 0.1, dermatoxin mass 3.3 × 10^−9 mg, with phosphatase) was 0.134 absorbance units. The “Absorbance at 538 nm” value (2 hrs, lipid conc. 0.1, dermatoxin mass 3.3 × 10^−9 mg, without phosphatase) was 0.121 absorbance units, the “Absorbance at 538 nm” value (18 hrs (d), 1:10-diluted sample, lipid conc. 0, dermatoxin mass 3.3 × 10^−5 mg, with phosphatase) was 0.053 absorbance units and the “Absorbance at 538 nm” value (18 hrs (d), 1:10-diluted sample, lipid conc. 0, dermatoxin mass 3.3 × 10^−5 mg, without phosphatase) was 0.054 absorbance units. For the same sequence, the “Absorbance at 538 nm” value (18 hrs (d), 1:10-diluted sample, lipid conc. 0, dermatoxin mass 3.3 × 10^−6 mg, with phosphatase) was 0.053 absorbance units, the “Absorbance at 538 nm” value (18 hrs (d), 1:10-diluted sample, lipid conc. 0, dermatoxin mass 3.3 × 10^−6 mg, without phosphatase) was 0.052 absorbance units and the “Absorbance at 538 nm” value (18 hrs (d), 1:10-diluted sample, lipid conc. 0, dermatoxin mass 3.3 × 10^−7 mg, with phosphatase) was 0.052 absorbance units. The “Absorbance at 538 nm” value (18 hrs (d), 1:10-diluted sample, lipid conc. 0, dermatoxin mass 3.3 × 10^−7 mg, without phosphatase) was 0.054 absorbance units, the “Absorbance at 538 nm” value (18 hrs (d), 1:10-diluted sample, lipid conc. 0, dermatoxin mass 3.3 × 10^−8 mg, with phosphatase) was 0.054 absorbance units and the “Absorbance at 538 nm” value (18 hrs (d), 1:10-diluted sample, lipid conc. 0, dermatoxin mass 3.3 × 10^−8 mg, without phosphatase) was 0.053 absorbance units. The “Absorbance at 538 nm” value (18 hrs (d), 1:10-diluted sample, lipid conc. 0, dermatoxin mass 3.3 × 10^−9 mg, with phosphatase) was 0.053 absorbance units, the “Absorbance at 538 nm” value (18 hrs (d), 1:10-diluted sample, lipid conc. 0, dermatoxin mass 3.3 × 10^−9 mg, without phosphatase) was 0.053 absorbance units and the “Absorbance at 538 nm” value (18 hrs (d), 1:10-diluted sample, lipid conc. 0.004, dermatoxin mass 3.3 × 10^−5 mg, with phosphatase) was 0.092 absorbance units. The “Absorbance at 538 nm” value (18 hrs (d), 1:10-diluted sample, lipid conc. 0.004, dermatoxin mass 3.3 × 10^−5 mg, without phosphatase) was 0.096 absorbance units, the “Absorbance at 538 nm” value (18 hrs (d), 1:10-diluted sample, lipid conc. 0.004, dermatoxin mass 3.3 × 10^−6 mg, with phosphatase) was 0.090 absorbance units and the “Absorbance at 538 nm” value (18 hrs (d), 1:10-diluted sample, lipid conc. 0.004, dermatoxin mass 3.3 × 10^−6 mg, without phosphatase) was 0.081 absorbance units. For the same sequence, the “Absorbance at 538 nm” value (18 hrs (d), 1:10-diluted sample, lipid conc. 0.004, dermatoxin mass 3.3 × 10^−7 mg, with phosphatase) was 0.066 absorbance units, the “Absorbance at 538 nm” value (18 hrs (d), 1:10-diluted sample, lipid conc. 0.004, dermatoxin mass 3.3 × 10^−7 mg, without phosphatase) was 0.056 absorbance units and the “Absorbance at 538 nm” value (18 hrs (d), 1:10-diluted sample, lipid conc. 0.004, dermatoxin mass 3.3 × 10^−8 mg, with phosphatase) was 0.063 absorbance units. The “Absorbance at 538 nm” value (18 hrs (d), 1:10-diluted sample, lipid conc. 0.004, dermatoxin mass 3.3 × 10^−8 mg, without phosphatase) was 0.054 absorbance units and the “Absorbance at 538 nm” value (18 hrs (d), 1:10-diluted sample, lipid conc. 0.004, dermatoxin mass 3.3 × 10^−9 mg, with phosphatase) was 0.062 absorbance units.
